Our source for the GI50 and TGI values is PubChem BioAssay (NCI).

SMILES strings stand for the structures.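 Five concentrations, 48 hours, 96-well plates. Here, GI50 denotes the concentration required for 50% inhibition of growth. At the TGI there is no net growth.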 Some results are limits rather than exact numbers.

Test systems include A549 NSCLC; OVCAR-5 ovarian; SNB-75 CNS; OVCAR-8 ovarian; K-562 leukemia; SR leukemia; OVCAR-3 ovarian; SF-539 CNS; HCT-15 colon; EKVX NSCLC.
Assay in all cases: growth of human tumour cells (NCI), 48 h

For `C[C@H](Nc1ncnc2nc[nH]c12)c1cc2cccc(Cl)c2c(=O)n1-c1ccccc1`, the GI50 with A549 NSCLC was 24.2 µM; with OVCAR-5 ovarian it was 21.4 µM; with SNB-75 CNS, 0.229 µM; with OVCAR-8 ovarian, 27 µM; in the experiment with K-562 leukemia, 46.9 µM; in the experiment on SR leukemia, 24.3 µM. Besides, the GI50 in the experiment with OVCAR-3 ovarian is 4.19 µM; in the experiment with SF-539 CNS, 12.5 µM; with HCT-15 colon, 31.5 µM. The TGI was above 100 µM in the experiment on A549 NSCLC; above 100 µM with OVCAR-5 ovarian; 55.2 µM in the experiment on SNB-75 CNS; above 100 µM in the experiment with OVCAR-8 ovarian; above 100 µM with K-562 leukemia; above 100 µM with SR leukemia. Further, the TGI in the experiment on OVCAR-3 ovarian is above 100 µM; with SF-539 CNS, above 96 µM; with HCT-15 colon, above 100 µM.
With `C[N+](C)(C)CC(=O)N/N=C(/Cc1nc2c3c(ccc2[nH]c1=O)C(=O)c1ccccc1C3=O)C(=O)Nc1ccc(Cl)c(Cl)c1`, the TGI in the experiment on A549 NSCLC, in the experiment with OVCAR-5 ovarian, with OVCAR-8 ovarian, in the experiment on EKVX NSCLC, in the experiment on K-562 leukemia and with SR leukemia was above 100 µM each time. Also, the TGI in the experiment with OVCAR-3 ovarian and in the experiment with SF-539 CNS was above 100 µM each time.
As to `O=C(Cn1ccc(=O)[nH]c1=O)Nc1ccc(C(=O)O)c(O)c1`, the TGI with A549 NSCLC, in the experiment with OVCAR-5 ovarian, with SNB-75 CNS, with OVCAR-8 ovarian, with EKVX NSCLC and in the experiment on K-562 leukemia was above 100 µM in each case. The TGI in the experiment with SR leukemia, in the experiment on OVCAR-3 ovarian and in the experiment on HCT-15 colon was above 100 µM each time.
On to `COc1ccccc1NC(=O)CC(=O)N1N=C(C)C(N=Nc2ccc(S(N)(=O)=O)cc2)C1=O` (centres undefined), for which the TGI in the experiment on A549 NSCLC, in the experiment on OVCAR-5 ovarian, with SNB-75 CNS, in the experiment on OVCAR-8 ovarian, in the experiment on EKVX NSCLC and with SR leukemia was above 100 µM in each case. Further, the TGI in the experiment on OVCAR-3 ovarian, in the experiment on SF-539 CNS and in the experiment on HCT-15 colon was above 100 µM in each case.
For the compound `COC(=O)CCC1CCc2c(OC)ccc(O)c2C1=O` (centres undefined), the TGI in the experiment on A549 NSCLC, in the experiment on SNB-75 CNS, with OVCAR-8 ovarian, in the experiment on EKVX NSCLC, with K-562 leukemia and with SR leukemia was above 100 µM in each case. Also, the TGI in the experiment on OVCAR-3 ovarian, with SF-539 CNS and in the experiment with HCT-15 colon was above 100 µM in each case.
With `CN1CCN(CCc2cccc(C(=O)c3cnn(-c4ccc(F)cc4)c3N)c2)CC1`, the GI50 with A549 NSCLC, in the experiment with OVCAR-5 ovarian, with SNB-75 CNS, in the experiment with OVCAR-8 ovarian, with K-562 leukemia and with SR leukemia was above 25 µM each time. The GI50 in the experiment on OVCAR-3 ovarian, with SF-539 CNS and in the experiment on HCT-15 colon was above 25 µM each time. The TGI in the experiment on A549 NSCLC, in the experiment with OVCAR-5 ovarian, in the experiment with SNB-75 CNS, in the experiment with OVCAR-8 ovarian, in the experiment on K-562 leukemia and in the experiment with SR leukemia was above 25 µM each time. Moreover, the TGI with OVCAR-3 ovarian, in the experiment on SF-539 CNS and with HCT-15 colon was above 25 µM in each case.
With `CCCCCn1c(=N)n(CC(O)COc2cccc(C)c2)c2ccccc21` (centres undefined), the GI50 with A549 NSCLC was 10.2 µM; with OVCAR-5 ovarian, 9.82 µM; in the experiment on SNB-75 CNS it was 2.65 µM; with OVCAR-8 ovarian, 2.11 µM; with K-562 leukemia it was 2.76 µM; in the experiment with SR leukemia, 2.02 µM. Moreover, the GI50 is 8 µM in the experiment with OVCAR-3 ovarian, 11.7 µM in the experiment with SF-539 CNS and 4.93 µM in the experiment with HCT-15 colon. The TGI with A549 NSCLC worked out at 22.9 µM; in the experiment with OVCAR-5 ovarian, 25.2 µM; in the experiment on SNB-75 CNS, 16.5 µM; in the experiment on OVCAR-8 ovarian, 5.04 µM; with K-562 leukemia it was 10.2 µM; in the experiment with SR leukemia, 5.57 µM. Moreover, the TGI worked out at 21.2 µM in the experiment with OVCAR-3 ovarian, 24.7 µM in the experiment on SF-539 CNS and 20.3 µM in the experiment with HCT-15 colon.
For `COc1ccc(N2C(=O)c3c4c(c5c([nH]c6ncccc65)c3C2=O)CCC(C(C)(C)C)C4)cc1` (centres undefined), the TGI in the experiment on A549 NSCLC was above 100 µM; in the experiment on SNB-75 CNS it was 32.8 µM; in the experiment with OVCAR-8 ovarian it was above 100 µM; in the experiment with EKVX NSCLC it was above 100 µM; in the experiment on SR leukemia, above 100 µM; with OVCAR-3 ovarian it was above 100 µM. Moreover, the TGI in the experiment on SF-539 CNS and with HCT-15 colon was above 100 µM each time.
`COC(=O)[C@H](Cc1cn(C)cn1)NC(=O)[C@H](Cc1c[nH]c2ccccc12)NC(=O)Nc1cc(C(F)(F)F)cc(C(F)(F)F)c1`: the GI50 in the experiment on A549 NSCLC, in the experiment on OVCAR-5 ovarian, with SNB-75 CNS, with OVCAR-8 ovarian, in the experiment on K-562 leukemia and with SR leukemia was above 10 µM in each case. Further, the GI50 in the experiment on OVCAR-3 ovarian, in the experiment with SF-539 CNS and in the experiment on HCT-15 colon was above 10 µM each time. In addition, the TGI in the experiment with A549 NSCLC, in the experiment on OVCAR-5 ovarian, in the experiment with SNB-75 CNS, in the experiment on OVCAR-8 ovarian, with K-562 leukemia and with SR leukemia was above 10 µM in each case. Further, the TGI in the experiment with OVCAR-3 ovarian, in the experiment with SF-539 CNS and in the experiment with HCT-15 colon was above 10 µM throughout.
Turning to `C=C1C(=O)O[C@H]2[C@H]1[C@H](OC(=O)/C(C)=C\C)CC(=C)[C@@H]1[C@H](O)[C@H]3O[C@@]3(C)[C@@]12O`, the TGI in the experiment with A549 NSCLC, in the experiment with SNB-75 CNS, in the experiment on OVCAR-8 ovarian, in the experiment with EKVX NSCLC, in the experiment on K-562 leukemia and with SR leukemia was above 100 µM in each case. The TGI in the experiment with OVCAR-3 ovarian, with SF-539 CNS and in the experiment on HCT-15 colon was above 100 µM in each case.
